Source: BindingDB's records for patent US10689345 (Mission Therapeutics Limited, 2020)

Target: T1, Ubiquitin carboxyl-terminal hydrolase 30 (Homo sapiens, UniProt Q70CQ3)
T1 sequence (Q70CQ3 whole entry): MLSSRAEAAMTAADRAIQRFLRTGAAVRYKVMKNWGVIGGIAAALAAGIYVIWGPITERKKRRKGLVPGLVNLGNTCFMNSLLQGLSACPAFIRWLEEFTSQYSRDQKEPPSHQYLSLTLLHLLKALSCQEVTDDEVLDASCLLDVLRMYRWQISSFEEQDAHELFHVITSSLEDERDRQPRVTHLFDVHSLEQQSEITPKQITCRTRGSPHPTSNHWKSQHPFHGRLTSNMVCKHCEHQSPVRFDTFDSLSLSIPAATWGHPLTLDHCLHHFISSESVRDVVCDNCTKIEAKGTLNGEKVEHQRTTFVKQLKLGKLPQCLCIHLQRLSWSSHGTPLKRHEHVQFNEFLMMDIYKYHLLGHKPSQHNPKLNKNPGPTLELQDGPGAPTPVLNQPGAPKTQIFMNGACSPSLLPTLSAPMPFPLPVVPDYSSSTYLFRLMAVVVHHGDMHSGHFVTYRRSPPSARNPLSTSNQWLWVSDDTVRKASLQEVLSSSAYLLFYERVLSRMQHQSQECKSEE
Assay: Biochemical Fluorescence Intensity Kinetic Assay/Biochemical Fluorescence Intensity Assay
Experimental: Buffer was optimised for optimal temperature, pH, reducing agent, salts, time of incubation, and detergent. […] Reactions were incubated at room temperature and read every 2 min for 120 min. Readings were performed on a Pherastar Plus (BMG Labtech). […] A typical 8-point dilution series would be 100, 30, 10, 3, 1, 0.3, 0.1, 0.03 μM final. […] Either 1 μl of 50% DMSO or diluted compound was added to the plate. USP30 was diluted in reaction buffer (40 mM Tris, pH 7.5, 0.005% Tween 20, 0.5 mg/ml BSA, 5 mM beta-mercaptoethanol) to the equivalent of 0.001 μl/well and 10 μl of diluted USP30 was added to the compound. Enzyme and compound were incubated for 30 min at room temp. […] Reactions were read immediately after addition of substrate and following a 2 h incubation at room temperature.

SMILES: CO[C@@H]1CN(C#N)C[C@H]1N(C)C(=O)c1ccc(-c2cnn(C)c2)cc1 [US10689345, Example 178]
- IC50: in the range around 550 nM
